Results taken from ChEMBL document CHEMBL5260838 (J Med Chem, 2019).
≈ marks a conversion by molar mass, not a printed value.

What was measured:
[1] = target: Sodium channel protein type 9 subunit alpha (Homo sapiens, UniProt Q15858); test: Inhibition of human Nav1.7 alpha subunit expressed in HEK293 cells co-expressing beta1 subunit at -60 mV holding potential by whole-cell patch voltage clamp electrophysiology recording; format: cell-based
Cytochrome P450 3A4 = Cytochrome P450 3A4 (Homo sapiens, UniProt P08684); test: Inhibition of CYP3A4 (unknown origin); format: ADME
Cytochrome P450 2C9 = Cytochrome P450 2C9 (Homo sapiens, UniProt P11712); test: Inhibition of CYP2C9 (unknown origin); format: ADME
[2] = Protein binding in human plasma; format: ADME, cell-free; conditions: read-out: PPB (converted)
[3] = target: Sodium channel protein type 9 subunit alpha (Mus musculus, UniProt Q62205); test: Inhibition of mouse Nav1.7 at -60 mV holding potential by PatchXpress automated voltage clamp electrophysiology technique
[4] = target: Sodium channel protein type 9 subunit alpha (Rattus norvegicus, UniProt O08562); test: Inhibition of rat Nav1.7 at -60 mV holding potential by PatchXpress automated voltage clamp electrophysiology technique
[5] = target: Sodium channel protein type 2 subunit alpha (Homo sapiens, UniProt Q99250); test: Inhibition of human Nav1.2 alpha subunit expressed in HEK293 cells co-expressing beta1 subunit at -35 mV holding potential by PatchXpress automated voltage clamp electrophysiology technique; format: cell-based
[6] = target: Sodium channel protein type 1 subunit alpha (Homo sapiens, UniProt P35498); test: Inhibition of human Nav1.1 alpha subunit expressed in HEK293 cells co-expressing beta1 subunit at -40 mV holding potential by PatchXpress automated voltage clamp electrophysiology technique; format: cell-based
[7] = target: Sodium channel protein type 8 subunit alpha (Homo sapiens, UniProt Q9UQD0); test: Inhibition of human Nav1.6 alpha subunit expressed in HEK293 cells co-expressing beta1 subunit at -35 mV holding potential by PatchXpress automated voltage clamp electrophysiology technique; format: cell-based
[8] = target: Sodium channel protein type 10 subunit alpha (Mus musculus) (UniProt Q6QIY3); test: Inhibition of TTX-resistant Nav1.8 in mouse dorsal root ganglion neuron at 10 uM by voltage clamp recording relative to control; format: tissue-based; conditions: DRG neuron
[9] = target: Sodium channel protein type 10 subunit alpha (Mus musculus, UniProt Q6QIY3); test: Inhibition of TTX-resistant Nav1.8 in mouse dorsal root ganglion neuron by voltage clamp recording; format: tissue-based, DRG neuron
[10] = Efflux ratio of apparent permeability across basolateral to apical side over apical to basolateral side in MDCK1 cells; format: ADME, cell-based, Canis lupus familiaris; conditions: dog, MDCK
[11] = Kinetic solubility of compound; format: physicochemical; conditions: read-out: Kinetic_solubility
MDR1 [12] = test: Apparent permeability from apical to basolateral side in MDCK1 cells expressing MDR1; format: ADME, cell-based, Canis lupus familiaris; conditions: dog, MDCK-MDR1
MDR1 [13] = test: Efflux ratio of apparent permeability across basolateral to apical side over apical to basolateral side in MDCK1 cells expressing MDR1; format: ADME, cell-based, Canis lupus familiaris; conditions: dog, MDCK-MDR1
[14] = system: mouse breast cancer resistant protein (Bcrp); test: Apparent permeability from apical to basolateral side in MDCK-II cells expressing mouse breast cancer resistant protein; format: ADME, cell-based, Canis lupus familiaris; conditions: dog
[15] = system: mouse breast cancer resistant protein (Bcrp); test: Efflux ratio of apparent permeability across basolateral to apical side over apical to basolateral side MDCK-II cells expressing mouse breast cancer resistant protein; format: ADME, cell-based, Canis lupus familiaris; conditions: dog
[16] = Half-life in FVB mouse at 1 mg/kg, iv; format: ADME, organism-based; conditions: in vivo, iv, 1 mg/kg
[17] = Volume of distribution at steady state in FVB mouse at 1 mg/kg, iv; format: ADME, organism-based; conditions: in vivo, iv, 1 mg/kg
[18] = Cmax in FVB mouse at 30 mg/kg, po; format: ADME, organism-based; parameters: dose 30 mg/kg, route po; conditions: in vivo
[19] = AUC in FVB mouse at 30 mg/kg, po; format: ADME, organism-based; parameters: dose 30 mg/kg, route po; conditions: in vivo
[20] = Half-life in Sprague-Dawley rat at 1 mg/kg, iv; format: ADME, organism-based; conditions: in vivo
[21] = Clearance in Sprague-Dawley rat at 1 mg/kg, iv; format: ADME, organism-based; conditions: in vivo
[22] = Oral bioavailability in Sprague-Dawley rat at 5 mg/kg; format: ADME, organism-based; conditions: in vivo
[23] = Half-life in Beagle dog at 0.5 mg/kg, iv; format: ADME, organism-based, Canis lupus familiaris; conditions: in vivo
[24] = Clearance in Beagle dog at 0.5 mg/kg, iv; format: ADME, organism-based, Canis lupus familiaris; conditions: in vivo
[25] = Half-life in Beagle dog at 1 mg/kg, po; format: ADME, organism-based, Canis lupus familiaris; conditions: in vivo
[26] = Cmax in Beagle dog at 1 mg/kg, po; format: ADME, organism-based, Canis lupus familiaris; parameters: dose 1 mg/kg, route po; conditions: in vivo
Mus musculus [27] = test: Antinociceptive activity against aconitine-induced pain in FVB mouse model expressing human Nav 1.7 I848T mutant assessed as reduction in nociceptive behavior at 1 mg/kg, po administered 120 mins prior to aconitine administration and measured after 70 mins relative to control; format: functional; parameters: scale not given: the % may be the effect or the level left; conditions: time 190 min, 3.167 h
Mus musculus [28] = test: Antinociceptive activity against aconitine-induced pain in FVB mouse model expressing human Nav 1.7 I848T mutant assessed as reduction in nociceptive behavior at 3 mg/kg, po administered 120 mins prior to aconitine administration and measured after 70 mins relative to control; format: functional; parameters: scale not given: the % may be the effect or the level left; conditions: time 190 min, 3.167 h
[29] = Drug concentration in plasma of FVB mouse model of aconitine-induced pain expressing human Nav1.7 I848T mutant at 10 mg/kg, po administered 120 mins prior to aconitine administered and measured after 70 mins by UPLC-ESI MS/MS analysis; format: ADME, organism-based; conditions: time 190 min
[30] = Drug concentration in brain of FVB mouse model of aconitine-induced pain expressing human Nav1.7 I848T mutant at 3 mg/kg, po administered 120 mins prior to aconitine administered and measured after 70 mins by UPLC-ESI MS/MS analysis; format: ADME, organism-based; conditions: time 190 min, read-out: Ct
[31] = Toxicity in FVB mouse assessed as tolerance; conditions: in vivo

Chain of Cytochrome P450 2C9 (P11712 whole entry): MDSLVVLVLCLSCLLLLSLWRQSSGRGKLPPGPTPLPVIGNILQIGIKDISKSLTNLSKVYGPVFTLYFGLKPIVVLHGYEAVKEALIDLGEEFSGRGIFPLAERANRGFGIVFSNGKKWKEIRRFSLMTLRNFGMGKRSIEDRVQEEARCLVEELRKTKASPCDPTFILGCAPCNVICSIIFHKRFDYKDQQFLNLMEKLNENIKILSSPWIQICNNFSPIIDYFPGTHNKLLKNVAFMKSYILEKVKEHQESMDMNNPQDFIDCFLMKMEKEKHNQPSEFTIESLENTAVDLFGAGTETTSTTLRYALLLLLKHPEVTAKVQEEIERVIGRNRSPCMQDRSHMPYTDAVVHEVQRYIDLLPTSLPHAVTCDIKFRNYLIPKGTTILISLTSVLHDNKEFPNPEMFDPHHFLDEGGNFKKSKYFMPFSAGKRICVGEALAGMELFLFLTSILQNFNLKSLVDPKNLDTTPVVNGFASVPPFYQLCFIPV
Chain of Sodium channel protein type 8 subunit alpha (Q9UQD0 whole entry): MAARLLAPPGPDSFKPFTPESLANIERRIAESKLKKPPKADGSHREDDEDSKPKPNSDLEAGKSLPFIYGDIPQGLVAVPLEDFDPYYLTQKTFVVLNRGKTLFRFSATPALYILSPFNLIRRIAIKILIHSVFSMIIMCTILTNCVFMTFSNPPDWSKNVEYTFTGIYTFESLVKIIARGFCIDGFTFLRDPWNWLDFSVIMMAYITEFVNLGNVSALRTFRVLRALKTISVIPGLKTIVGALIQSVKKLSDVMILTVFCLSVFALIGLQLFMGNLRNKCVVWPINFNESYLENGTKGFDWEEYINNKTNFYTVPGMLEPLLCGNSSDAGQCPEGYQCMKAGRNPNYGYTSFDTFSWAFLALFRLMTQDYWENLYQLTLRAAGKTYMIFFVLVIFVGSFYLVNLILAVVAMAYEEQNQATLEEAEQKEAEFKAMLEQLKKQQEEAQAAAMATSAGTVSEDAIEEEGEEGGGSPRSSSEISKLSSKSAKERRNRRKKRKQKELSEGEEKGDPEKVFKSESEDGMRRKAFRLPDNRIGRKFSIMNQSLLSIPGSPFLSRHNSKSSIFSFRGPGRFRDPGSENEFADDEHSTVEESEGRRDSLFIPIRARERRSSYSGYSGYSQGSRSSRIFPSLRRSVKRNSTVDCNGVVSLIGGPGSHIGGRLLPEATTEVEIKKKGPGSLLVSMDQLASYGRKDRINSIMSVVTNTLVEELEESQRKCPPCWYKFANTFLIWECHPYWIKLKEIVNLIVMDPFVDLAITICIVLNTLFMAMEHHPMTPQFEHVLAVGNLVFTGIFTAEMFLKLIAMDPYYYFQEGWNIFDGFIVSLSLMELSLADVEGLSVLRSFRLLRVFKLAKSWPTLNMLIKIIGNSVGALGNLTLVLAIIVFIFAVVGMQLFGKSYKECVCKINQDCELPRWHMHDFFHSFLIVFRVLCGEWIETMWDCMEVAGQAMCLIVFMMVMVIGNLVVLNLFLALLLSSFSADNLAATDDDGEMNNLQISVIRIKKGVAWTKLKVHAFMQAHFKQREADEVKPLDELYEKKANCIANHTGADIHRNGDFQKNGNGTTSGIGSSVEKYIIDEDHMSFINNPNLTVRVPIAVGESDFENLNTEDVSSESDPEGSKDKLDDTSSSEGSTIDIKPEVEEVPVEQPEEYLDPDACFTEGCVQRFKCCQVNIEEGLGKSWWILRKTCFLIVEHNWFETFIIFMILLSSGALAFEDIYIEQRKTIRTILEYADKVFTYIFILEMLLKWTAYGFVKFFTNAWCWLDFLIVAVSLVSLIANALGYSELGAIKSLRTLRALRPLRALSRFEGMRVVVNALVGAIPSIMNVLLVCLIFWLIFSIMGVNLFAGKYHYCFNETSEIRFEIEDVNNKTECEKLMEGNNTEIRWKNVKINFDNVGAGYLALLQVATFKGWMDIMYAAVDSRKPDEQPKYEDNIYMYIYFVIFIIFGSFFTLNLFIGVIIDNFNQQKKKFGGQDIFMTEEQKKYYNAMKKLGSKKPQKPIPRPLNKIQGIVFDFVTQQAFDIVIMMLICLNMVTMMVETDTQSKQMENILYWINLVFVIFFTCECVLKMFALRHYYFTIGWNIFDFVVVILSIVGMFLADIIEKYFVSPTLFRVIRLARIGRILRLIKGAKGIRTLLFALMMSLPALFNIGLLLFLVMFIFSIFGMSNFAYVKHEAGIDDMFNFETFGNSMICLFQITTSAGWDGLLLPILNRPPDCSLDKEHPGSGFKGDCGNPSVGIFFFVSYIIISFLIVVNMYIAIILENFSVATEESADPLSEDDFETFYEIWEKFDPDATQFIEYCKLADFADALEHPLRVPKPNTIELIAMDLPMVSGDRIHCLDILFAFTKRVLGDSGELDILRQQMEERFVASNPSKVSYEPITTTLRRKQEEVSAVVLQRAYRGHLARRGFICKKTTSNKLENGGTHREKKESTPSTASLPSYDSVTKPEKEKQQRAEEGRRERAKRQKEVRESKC
Chain of Cytochrome P450 3A4 (P08684 whole entry): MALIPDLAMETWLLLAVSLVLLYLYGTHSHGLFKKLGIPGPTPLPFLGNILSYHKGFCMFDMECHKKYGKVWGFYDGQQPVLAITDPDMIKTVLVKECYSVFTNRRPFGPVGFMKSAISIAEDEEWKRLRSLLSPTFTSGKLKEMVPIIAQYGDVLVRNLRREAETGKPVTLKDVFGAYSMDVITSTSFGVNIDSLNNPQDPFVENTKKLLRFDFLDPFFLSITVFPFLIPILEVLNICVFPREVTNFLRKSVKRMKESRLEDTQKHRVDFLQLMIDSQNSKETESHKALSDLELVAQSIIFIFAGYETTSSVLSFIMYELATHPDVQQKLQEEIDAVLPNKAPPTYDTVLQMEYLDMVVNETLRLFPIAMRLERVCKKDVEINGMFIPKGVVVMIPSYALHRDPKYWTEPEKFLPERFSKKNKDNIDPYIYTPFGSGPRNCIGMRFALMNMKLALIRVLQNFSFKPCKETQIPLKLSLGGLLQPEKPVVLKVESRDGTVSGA
Chain of Sodium channel protein type 2 subunit alpha (Q99250 whole entry): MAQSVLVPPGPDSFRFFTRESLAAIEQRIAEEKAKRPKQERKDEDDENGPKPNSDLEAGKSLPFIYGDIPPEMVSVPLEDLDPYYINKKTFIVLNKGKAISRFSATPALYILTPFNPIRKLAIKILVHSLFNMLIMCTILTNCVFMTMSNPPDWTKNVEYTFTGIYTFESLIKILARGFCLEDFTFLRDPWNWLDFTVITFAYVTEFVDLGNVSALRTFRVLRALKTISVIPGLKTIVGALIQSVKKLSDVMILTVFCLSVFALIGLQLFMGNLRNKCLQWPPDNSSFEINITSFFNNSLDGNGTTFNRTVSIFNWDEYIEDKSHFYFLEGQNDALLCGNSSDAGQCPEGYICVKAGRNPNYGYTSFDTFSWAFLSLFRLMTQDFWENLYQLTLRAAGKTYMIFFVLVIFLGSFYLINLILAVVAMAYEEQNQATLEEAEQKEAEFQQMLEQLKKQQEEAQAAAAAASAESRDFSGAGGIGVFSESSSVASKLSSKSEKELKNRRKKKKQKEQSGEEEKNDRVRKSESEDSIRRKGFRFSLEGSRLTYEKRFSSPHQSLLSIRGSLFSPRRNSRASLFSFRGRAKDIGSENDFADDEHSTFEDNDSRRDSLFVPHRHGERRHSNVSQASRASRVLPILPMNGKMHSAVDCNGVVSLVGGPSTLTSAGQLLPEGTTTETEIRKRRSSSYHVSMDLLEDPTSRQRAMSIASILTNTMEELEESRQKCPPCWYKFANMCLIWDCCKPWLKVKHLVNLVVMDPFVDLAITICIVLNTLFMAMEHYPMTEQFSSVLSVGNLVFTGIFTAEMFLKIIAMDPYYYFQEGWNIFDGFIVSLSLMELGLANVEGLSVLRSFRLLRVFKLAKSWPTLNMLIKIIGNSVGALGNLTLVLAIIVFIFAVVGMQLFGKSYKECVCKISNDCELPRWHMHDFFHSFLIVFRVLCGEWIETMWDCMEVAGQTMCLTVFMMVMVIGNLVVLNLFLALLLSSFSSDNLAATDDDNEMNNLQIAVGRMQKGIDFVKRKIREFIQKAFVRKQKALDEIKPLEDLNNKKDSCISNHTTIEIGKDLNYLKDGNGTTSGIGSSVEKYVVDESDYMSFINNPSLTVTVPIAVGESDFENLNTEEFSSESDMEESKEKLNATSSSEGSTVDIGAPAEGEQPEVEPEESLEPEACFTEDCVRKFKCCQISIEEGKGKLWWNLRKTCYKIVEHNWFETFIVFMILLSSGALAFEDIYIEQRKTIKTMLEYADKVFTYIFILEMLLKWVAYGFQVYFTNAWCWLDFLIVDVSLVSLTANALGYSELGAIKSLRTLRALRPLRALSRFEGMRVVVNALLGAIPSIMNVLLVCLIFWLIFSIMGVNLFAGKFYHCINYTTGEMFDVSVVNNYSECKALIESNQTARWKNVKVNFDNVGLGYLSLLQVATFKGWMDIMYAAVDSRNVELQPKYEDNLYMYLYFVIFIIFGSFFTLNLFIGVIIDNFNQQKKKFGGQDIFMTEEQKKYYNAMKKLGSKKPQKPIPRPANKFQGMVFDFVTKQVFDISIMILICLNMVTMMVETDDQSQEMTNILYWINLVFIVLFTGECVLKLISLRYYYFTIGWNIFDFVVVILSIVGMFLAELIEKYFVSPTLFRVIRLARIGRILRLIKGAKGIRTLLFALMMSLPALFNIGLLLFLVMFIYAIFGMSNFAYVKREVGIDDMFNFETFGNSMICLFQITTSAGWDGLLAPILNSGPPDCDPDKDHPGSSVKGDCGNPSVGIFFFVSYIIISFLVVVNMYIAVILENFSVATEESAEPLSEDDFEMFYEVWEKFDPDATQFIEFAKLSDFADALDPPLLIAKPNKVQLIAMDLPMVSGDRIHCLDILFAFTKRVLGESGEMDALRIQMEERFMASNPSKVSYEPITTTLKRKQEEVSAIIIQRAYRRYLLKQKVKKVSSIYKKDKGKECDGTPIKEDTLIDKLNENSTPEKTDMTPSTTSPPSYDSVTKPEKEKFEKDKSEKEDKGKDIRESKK

CC1(COc2cc(F)c(C(=O)NS(=O)(=O)C3CC3)cc2C2CC2)CCC2(CC1)CC2
IC50 [1]: 0.6 nM
IC50 (Cytochrome P450 3A4): > 10000 nM
IC50 (Cytochrome P450 2C9): 6100 nM
fraction unbound [2]: 0.001
IC50 [3]: 2.2 nM
IC50 [4]: 3.7 nM
IC50 [5]: 2 nM
IC50 [6]: 6 nM
IC50 [7]: 38 nM
inhibition [8]: 38%
IC50 [9]: > 10000 nM
efflux ratio [10]: 1
solubility kinetic [11]: 10 µM (≈ 4.36 µg/mL)
Papp A→B (MDR1 [12]): 3.7 ×10⁻⁶ cm/s
efflux ratio (MDR1 [13]): 1.2
Papp A→B [14]: 5.1 ×10⁻⁶ cm/s
efflux ratio [15]: 2.1
t1/2 [16]: 1.5 h
Vdss [17]: 0.41 L/kg
Cmax [18]: 22 µM
AUC [19]: 113 µM·h
half-life [20]: 8.1 h
clearance [21]: 1.2 mL/min/kg
bioavailability [22]: 49%
half-life [23]: 5.4 h
clearance [24]: 0.3 mL/min/kg
half-life [25]: 6 h
Cmax [26]: 9 µM
Activity (Mus musculus [27]): 86%
Activity (Mus musculus [28]): 98%
concentration at 3.167 h [29]: 79 µM
concentration at 3.167 h [30]: 1.9 µM
Activity [31]: Non-Toxic
